{
  "source": "patent US7212853B1",
  "about": "(priority 1996, dated 2007)",
  "assay": "Transdermal electrotransport delivery of goserelin at current densities of 50 and 100 μA/cm^2 (Example 3)",
  "type": "in vivo, human",
  "settings": "for average transdermal goserelin flux: 8 hours, 12 volunteers",
  "experimental": "This study was undertaken to evaluate the relationship between current density and drug flux in the transdermal electrotransport delivery of goserelin. The study involved the application of electrotransport devices, applying constant current, to 12 normal male volunteers for a duration of 8 hours.\nThe two electrotransport treatment regimens in this study differed only in applied current density levels. The electrotransport devices delivered goserelin through the skin from polyvinyl alcohol (PVOH)-based donor hydrogels having a skin-contact surface area of 4 cm^2. The gels contained an aqueous goserelin solution. The current density levels used in this study were 50 and 100 μA/cm^2. After an 8 hour treatment period, the electrotransport devices were removed. The skin site was then washed to remove any residual goserelin. All 12 volunteers received each treatment seven days apart.\nFor each treatment, seven blood samples were taken over a 24 hour period commencing with the application of current from the electrotransport devices. Serum goserelin concentrations from each patient were used to calculate mean drug flux and the mean total amount of drug delivered.",
  "data": [
    {"smiles": "CC(C)C[C@H](NC(=O)[C@@H](COC(C)(C)C)NC(=O)[C@H](Cc1ccc(O)cc1)NC(=O)[C@H](CO)NC(=O)[C@H](Cc1c[nH]c2ccccc12)NC(=O)[C@H](Cc1cnc[nH]1)NC(=O)[C@@H]1CCC(=O)N1)C(=O)N[C@@H](CCCNC(=N)N)C(=O)N1CCC[C@H]1C(=O)NNC(N)=O", "note": "[goserelin]", "values": [
      {"measurement": "average transdermal goserelin flux", "setting": "50 μA/cm^2, constant current", "value": 5.8, "unit": "µg/h"},
      {"measurement": "average transdermal goserelin flux", "setting": "100 μA/cm^2, constant current", "value": 21.6, "unit": "µg/h"},
      {"measurement": "increase in drug flux", "setting": "current density rises from 50 to 100 μA/cm^2", "value": "four"}
    ]}
  ]
}
